Legend:
[1] = Partition coefficient (logP); format: physicochemical; conditions: octanol/water
[2] = target: GABA-A receptor; anion channel; test: In vitro displacement of [11C]Flumazenil from (CBR) central GABA-A benzodiazepine receptor of rat brain
Translocator protein = Translocator protein (Rattus norvegicus, UniProt P16257); test: In vitro binding affinity for PBR (peripheral benzodiazepine receptor) in rat brain; format: tissue-based
Sequence of Translocator protein (P16257 whole entry, looked up): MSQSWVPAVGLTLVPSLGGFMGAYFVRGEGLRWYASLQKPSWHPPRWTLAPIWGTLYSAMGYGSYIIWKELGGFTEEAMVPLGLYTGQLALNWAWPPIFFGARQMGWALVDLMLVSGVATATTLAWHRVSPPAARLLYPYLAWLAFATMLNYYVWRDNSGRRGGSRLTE

| logP [1] | IC50 [2] [µM] | Ki (Translocator protein) [nM] | Structure (SMILES) |
| --- | --- | --- | --- |
| 3.81 | > 10 | – | COc1ccc(OCCF)c(CN(C(C)=O)c2cc(F)ccc2Oc2ccccc2)c1 |
| – | > 10 | – | CC[C@@H](C)N(C)C(=O)c1cc2ccccc2c(-c2ccccc2Cl)n1 [PK-11195] |
| 3.65 | > 10 | 0.043 | COc1ccc(OC)c(CN(C(C)=O)c2cc(F)ccc2Oc2ccccc2)c1 |
| 3.7 | > 10 | – | COc1ccc(OCF)c(CN(C(C)=O)c2cc(F)ccc2Oc2ccccc2)c1 |

From ChEMBL document CHEMBL1136260, “[18F]FMDAA1106 and [18F]FEDAA1106: two positron-emitter labeled ligands for peripheral benzodiazepine receptor (PBR)” (Bioorg Med Chem Lett, 2003)
